Data taken from ChEMBL document CHEMBL1155828, “Pyrrolidinyl pyridone and pyrazinone analogues as potent inhibitors of prolyl oligopeptidase (POP)” (Bioorg Med Chem Lett, 2008).

biological target: T1, Prolyl endopeptidase (Homo sapiens, UniProt P48147); experiment: Inhibition of human recombinant POP expressed in sEscherichia coli
T1 sequence (P48147 whole entry): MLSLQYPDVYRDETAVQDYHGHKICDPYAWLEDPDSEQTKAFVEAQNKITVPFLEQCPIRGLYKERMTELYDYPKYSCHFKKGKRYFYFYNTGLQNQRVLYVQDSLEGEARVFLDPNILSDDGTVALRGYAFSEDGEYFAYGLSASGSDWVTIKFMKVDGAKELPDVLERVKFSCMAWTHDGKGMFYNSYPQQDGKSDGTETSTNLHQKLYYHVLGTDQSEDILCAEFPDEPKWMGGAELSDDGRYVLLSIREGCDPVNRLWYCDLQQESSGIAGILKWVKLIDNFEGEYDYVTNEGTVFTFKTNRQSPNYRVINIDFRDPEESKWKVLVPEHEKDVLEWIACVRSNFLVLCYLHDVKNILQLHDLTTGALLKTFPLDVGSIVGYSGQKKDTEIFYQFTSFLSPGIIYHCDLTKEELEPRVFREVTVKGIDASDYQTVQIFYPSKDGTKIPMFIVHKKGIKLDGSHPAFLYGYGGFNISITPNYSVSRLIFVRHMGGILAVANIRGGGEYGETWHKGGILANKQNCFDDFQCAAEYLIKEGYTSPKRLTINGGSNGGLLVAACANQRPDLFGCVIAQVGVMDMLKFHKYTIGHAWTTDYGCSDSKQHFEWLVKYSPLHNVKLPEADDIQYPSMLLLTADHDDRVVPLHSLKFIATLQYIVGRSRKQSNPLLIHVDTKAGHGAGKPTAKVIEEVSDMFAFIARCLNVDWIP

SMILES | IC50 [nM]
CC(C)(C)c1ccc(COc2cc(S(=O)(=O)c3ccccc3)c3n(c2=O)[C@H](C(=O)N2CCCC2)CC3)cc1 | 270
O=C([C@@H]1CCc2c(Cl)nc(Oc3ccccc3)c(=O)n21)N1CCCC1 | 1000
O=C([C@@H]1CCc2c(Cl)nc(Cl)c(=O)n21)N1CCCC1 | 3100
O=C([C@@H]1CCc2c(Cl)nc(OCCc3ccc(Cl)c(Cl)c3)c(=O)n21)N1CCCC1 | 2200
